Earlier results on one substance are cited in patent US20050266077A1, “Resorbable matrices with coatings for delivery of bioactive compounds” (Royal Biomedical, Inc., priority 2002, published 2005).

For this series the following is noted: exothermic reaction, matrix temperatures as high as 100° C.

Regarding polymyxin, the inactivation of antibiotic entry was “inactivated”.
